Test results: patent US20210386823A1, “THERAPEUTIC AGENT FOR CARTILAGE DISORDER” (OSAKA UNIVERSITY, priority 2018, published 2021)

Tested on: cartilage defect model mice (knee joint articular cartilage defect)
Experiment: Efficacy of HMGB1 fragment peptide on articular cartilage defect in cartilage defect model mouse
Assay type: in vivo, C57BL/6J mice
Method: C57BL/6J mice (6-7 weeks old, male, wild type) were purchased from CLEA Japan, Inc., and then acclimated to animal facilities until they were 8 weeks old (weighing approximately 25 g at 8 weeks old). While the mice were under 1.5-2.0% (v/v) isoflurane inhalation anesthesia, shaving was performed on the lower extremity of the side to create a cartilage defect, and a longitudinal skin incision of approximately 1 cm was applied with scissors to the middle of the knee joint. An articular dissection of approximately 1 cm was performed under the microscope with a sharp blade (#11) in the parapatellar medial approach to dislocate the patella laterally. The femoral pulley was confirmed, and a 0.5×0.5×0.5 mm cartilage defect was created at the center of the pulley using a 0.5 mm diameter hand-turned drill (manufactured by MEISINGER USA, L.L.C.). Inside of the joint was washed with saline, then the articular capsule was continuously sutured with 8-0 vicryl to prevent patellar dislocation, and the skin was sutured with 5-0 nylon thread.
Cartilage defect model mice created as described above were divided into an HMGB1 peptide (1-44) administration group (n=16) and a control group (n=16). To the HMGB1 peptide (1-44) administration group, a solution of HMGB1 peptide (1-44) adjusted to a concentration of 1 μg/μL with saline as solvent was administered from the tail vein in an amount of 100 μL/mouse (4 mg/kg as the dose of peptide) immediately after the cartilage defect was created, and thereafter, the same dose was administered twice a week until 4 weeks after the cartilage defect was created (hereinafter also referred to simply as “post-operative”). To the control group, saline was administered from the tail vein in an amount of 100 μL to each mouse on the same schedule as in the HMGB1 peptide (1-44) administration group.
In both the HMGB1 peptide (1-44) administration group and the control group, four mice were sacrificed at each time point of 2, 4, 8 and 12 weeks post-operative, and the cartilage defect creation sites of knee joints were removed for microscopic observation and tissue staining. For microscopic observation, the status of cartilage tissue was evaluated by scoring the gross appearance according to the criteria shown in Table 1 below using the Wayne scoring system. In addition, sections of cartilage tissue were created for histological evaluation and subjected to safranin O staining, and the status of cartilage tissue was evaluated by calculating the Wakitani score from the tissue images according to the criteria shown in Table 2 below.

## HMGB1 peptide (1-44): Peptide consisting of amino acid residues 1-44 (SEQ ID NO: 1) of human-derived HMGB1 protein, chemically synthesized by a solid-phase method (MGKGDPKKPRGKMSSYAFFVQTCREEHKKKHPDASVNFSEFSKK)
4 mg/kg tail vein, twice a week until 4 weeks post-operative, observed at 2, 4, 8 and 12 weeks post-operative, vs control group (saline)
  Microscopic observation (gross appearance) of cartilage defect sites of knee joints: recovered to a state closer to normal than those of the control group
4 mg/kg tail vein, twice a week until 4 weeks, 2, 4, 8 and 12 weeks post-operative, FIGS. 3 and 5
  Safranin O staining of cartilage tissue sections (regeneration of defective cartilage tissue): defective cartilage tissue was fully regenerated
4 mg/kg tail vein, twice a week until 4 weeks, 2, 4, 8 and 12 weeks post-operative, vs control group, FIG. 2
  Wayne score (gross appearance): higher than the control group
4 mg/kg tail vein, twice a week until 4 weeks, 2, 4, 8 and 12 weeks post-operative, vs control group, FIGS. 4 and 6
  Wakitani score (histological evaluation): significantly lower compared to that of the control group
12 weeks post-operative, compared with cartilage of normal mice (FIG. 8, left)
  Safranin O staining response of knee joint cartilage tissues compared with normal mice: strong positive response similar to cartilage tissues of knee joints of normal mice
